Assays:
EGFR WT = EGFR WT (Homo sapiens, UniProt P00533); details: wild type EGFR and exon 20 insertion mutants, summary of Table 1
[1] = system: non-small cell lung cancer with insertion mutation in exon 20; details: cited from earlier work
[2] = system: stage IV lung adenocarcinoma carrying Exon 20 ins; details: cited from earlier work

Chain of EGFR WT (P00533 668-1210 limits assumed): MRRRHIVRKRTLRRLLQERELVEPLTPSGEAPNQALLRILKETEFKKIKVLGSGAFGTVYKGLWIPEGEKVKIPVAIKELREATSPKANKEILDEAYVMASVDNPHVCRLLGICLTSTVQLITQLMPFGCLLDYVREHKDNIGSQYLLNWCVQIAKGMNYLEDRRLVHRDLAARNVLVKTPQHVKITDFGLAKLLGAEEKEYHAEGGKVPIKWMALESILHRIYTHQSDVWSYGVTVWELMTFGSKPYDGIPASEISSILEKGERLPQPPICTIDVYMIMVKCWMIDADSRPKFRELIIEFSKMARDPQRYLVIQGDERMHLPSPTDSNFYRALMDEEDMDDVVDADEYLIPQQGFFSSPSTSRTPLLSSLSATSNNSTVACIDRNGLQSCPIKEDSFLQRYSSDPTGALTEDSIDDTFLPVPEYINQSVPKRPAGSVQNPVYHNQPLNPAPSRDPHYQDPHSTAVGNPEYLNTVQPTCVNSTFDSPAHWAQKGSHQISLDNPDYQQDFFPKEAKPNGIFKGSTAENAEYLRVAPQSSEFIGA

CCOc1cc2ncc(C#N)c(Nc3ccc(OCc4ccccn4)c(Cl)c3)c2cc1NC(=O)/C=C/[C@H]1CCCN1C [Compound A, (E)-N-[4-[[3-chloro-4-(2-pyridylmethoxy)phenyl]amino]-3-cyano-7-ethoxy-6-quinolyl]-3-[(2R)-1-methylpyrrolidin-2-yl]prop-2-enamide]
inhibitory effect on the enzymatic activity of recombinant human wild type EGFR and the mutated type with inserted mutation in exon 20 (in words) (EGFR WT): strong inhibitory effect

CN(C)C/C=C/C(=O)Nc1cc2c(Nc3ccc(F)c(Cl)c3)ncnc2cc1O[C@H]1CCOC1 [SHR141219 (BIBW-2992)]
ORR evaluated through IRC ([1]; 23 patients with Exon 20 ins, 95% CI: 1.1%-28%): 8.7% | median PFS ([1]; patients with Exon 20 ins, 95% CI: 1.8-4.2 months): 2.7 months | median OS ([1]; patients with Exon 20 ins, 95% CI: 4.1-14.2 months): 9.2 months

C#Cc1cccc(Nc2ncnc3cc(OCCOC)c(OCCOC)cc23)c1 [erlotinib]
partial remission (PR) rate ([2]; 3 of the 11 patients with Exon 20 ins): 27% | median TTP ([2]; patients with Exon 20 ins who received erlotinib): 3 months
